From PMC6529709 (Heliyon, 2019)

Target: urease (from jack bean) (Canavalia ensiformis, UniProt P07374)
Test: indophenol
Format: biochemical

urease (from jack bean), sequence (P07374 whole entry, looked up): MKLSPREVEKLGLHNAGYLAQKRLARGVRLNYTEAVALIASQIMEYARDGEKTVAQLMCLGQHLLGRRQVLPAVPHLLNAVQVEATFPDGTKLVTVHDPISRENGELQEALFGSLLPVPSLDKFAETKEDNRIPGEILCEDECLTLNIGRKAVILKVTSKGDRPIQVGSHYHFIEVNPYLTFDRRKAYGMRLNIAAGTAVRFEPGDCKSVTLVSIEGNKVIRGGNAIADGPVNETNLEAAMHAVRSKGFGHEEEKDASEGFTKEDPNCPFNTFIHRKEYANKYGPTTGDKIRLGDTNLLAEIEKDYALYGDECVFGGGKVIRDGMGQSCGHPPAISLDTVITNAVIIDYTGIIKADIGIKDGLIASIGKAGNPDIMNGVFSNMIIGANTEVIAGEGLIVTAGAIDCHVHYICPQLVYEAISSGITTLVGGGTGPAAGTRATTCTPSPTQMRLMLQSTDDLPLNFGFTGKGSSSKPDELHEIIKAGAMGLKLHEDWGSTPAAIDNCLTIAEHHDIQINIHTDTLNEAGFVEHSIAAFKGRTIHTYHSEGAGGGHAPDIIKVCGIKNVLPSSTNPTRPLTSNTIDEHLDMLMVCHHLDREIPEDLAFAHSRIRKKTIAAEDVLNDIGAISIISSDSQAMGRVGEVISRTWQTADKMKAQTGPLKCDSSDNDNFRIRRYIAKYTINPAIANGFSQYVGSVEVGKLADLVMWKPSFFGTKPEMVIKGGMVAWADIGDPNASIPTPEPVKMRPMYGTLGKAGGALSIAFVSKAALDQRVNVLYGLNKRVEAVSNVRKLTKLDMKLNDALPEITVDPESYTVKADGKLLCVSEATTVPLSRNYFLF

SMILES	IC50 [µM]
COc1ccc(/C=N/N=C/c2ccc(OC)cc2)cc1 [ASB1]	38.4
COc1ccc(/C=N/c2cc(Cl)cc(Cl)c2)cc1 [ASB2]	184
NC(N)=S [Thiourea, reference compound]	65.3
